Measurements taken from US9533972B2, “Substituted sodium-1H-pyrazole-5-olate” (Bayer Intellectual Property GmbH, priority 2010, dated 2017).

How the values were obtained:
[1] = Vapour adsorption and vapour desorption (moisture sorption isotherm); format: physicochemical; conditions: 25° C.
Method: The moisture sorption isotherm was recorded using a Dynamic Vapour Sorption Analyzer IGA Sorp from Hiden Analytical. The measuring temperature was 25° C. There was no sample preparation.

[2] = test system: recombinant A549 cell line with luciferase reporter under hypoxia-responsible elements; assay: Cellular, functional in vitro test (luciferase reporter under hypoxia-responsible elements); format: cell-based; conditions: Homo sapiens; A549-derived luciferase reporter cell line
Source text: The activity of the compounds according to the invention is quantified with the aid of a recombinant cell line. The cell is originally derived from a human lung carcinoma cell line (A549, ATCC: American Type Culture Collection, Manassas, Va. 20108, USA). The test cell line is transfected in a stable manner with a vector which contains the reporter gene of Photinus pyralis luciferase (called luciferase in the following) under the control of an artificial minimal promoter. The minimal promoter comprises two hypoxia-responsible elements upstream of a TATA box [Oehme F., Ellinghaus P., Kolkhof P., Smith T. J., Ramakrishnan S., Hatter J., Schramm M., Flamme I., Biochem. Biophys. Res. Commun. 296 (2), 343-9 (2002)]. Under the effect of hypoxia (e.g. culturing in the presence of 1% oxygen for 24 hours) or under the action of non-selective dioxygenase inhibitors (e.g. desferroxamine in a concentration of 100 μM, cobalt chloride in a concentration of 100 μM or N-oxalylglycine diethyl ester in a concentration of 1 mM), the test cell line produces luciferase, which can be detected and quantified with the aid of suitable bioluminescence reagents (e.g. Steady-Glo® Luciferase Assay System, Promega Corporation, Madison, Wis. 53711, USA) and a suitable luminometer. […]

[3] = Solubility in water; format: physicochemical; conditions: comparison in words
Method: Method: Saturated solutions of the test substance were prepared by stirring a suspension in water at 25° C. for 16 hours. The suspensions obtained were then filtered, and the content in the filtrate was determined by HPLC.

[4] = Water uptake / hygroscopicity at customary environmental conditions; format: physicochemical
Method: The compound of the formula (I) is hygroscopic and, at customary environmental conditions (20-35° C., atmospheric pressure), takes up up to about 6% by weight of water even at a relative atmospheric humidity above 20% rh. At an atmospheric humidity of 30% rh, the uptake of 6% by weight of water is almost complete. If the atmospheric humidity decreases below 30% rh, the compound of the formula (I) releases part of the water it comprises. This uptake of water or release of water renders handling of the compound of the formula (I), for example weighing operations, and the production of the compound of the formula (I) in a uniform, stable and definined form for use in medicaments or the production of medicaments comprising compound of the formula (I) more difficult. In particular, this increases the technical expenditure during the production of administration forms comprising the compound of the formula (I), such as, for example, tablets, granules or drink solutions, since measures for controlling and regulating atmospheric humidity are required to maintain a uniform concentration of the compound of the formula (I). […]

SMILES	Desorption ([1]; 5% rh)	EC50 [2]	Adsorption ([1]; 0% rh)	Desorption ([1]; 0% rh)	Adsorption ([1]; 10% rh)	Desorption ([1]; 10% rh)	Desorption ([1]; 20% rh)	solubility in water compared to the compound of the formula (I) [3]	water comprised [4]
Oc1c(-n2ccnn2)cnn1-c1cc(N2CCOCC2)ncn1 [Compound of the formula (I), 1-[6-(morpholin-4-yl)pyrimidin-4-yl]-4-(1H-1,2,3-triazol-1-yl)-1H-pyrazol-5-ol, reference compound]	0.1% (5% rh)								
[Na+].[O-]c1c(-n2ccnn2)cnn1-c1cc(N2CCOCC2)ncn1 [Compound of the formula (II), sodium 1-[6-(morpholin-4-yl)pyrimidin-4-yl]-4-(1H-1,2,3-triazol-1-yl)-1H-pyrazol-5-olate]		7 µM	0%	0%	0%	0%	0%	higher solubility in water	less than 0.5 % by weight
